Experiment [1] addresses T1, Transient receptor potential cation channel subfamily A member 1 (Homo sapiens, UniProt O75762). In words: Antagonist activity at human TRPA1 expressed in HEK293 cells assessed as inhibition of AITC-induced intracellular Ca2+ flux in presence of 5 uM AITC by Fluo4-AM dye based fluorescence analysis. The experiment is classed as cell-based. For orientation: Calcium flux is commonly read through the fluorescence of an indicator in the cells.

Experiment [2] has as its target T1, Transient receptor potential cation channel subfamily A member 1. In words: Antagonist activity at human TRPA1 expressed in HEK293T cells assessed as inhibition of AITC-induced current by whole cell patch clamp analysis. The experiment is classed as cell-based. On the technique in general: Patch clamp records ionic current or voltage across a cell membrane.
Experiment [3] has the same target. In words: Antagonist activity at wildtype human TRPA1 expressed in HEK293 cells assessed as inhibition of AITC-induced intracellular Ca2+ flux at 100 uM in presence of 5 uM AITC by Fluo4-AM dye based fluorescence analysis. The conditions noted are these: filed as antagonist. The experiment is classed as cell-based.
For experiment [4] the target is unchanged. In words: Antagonist activity at full length human TRPA1 expressed in HEK293 cells assessed as inhibition of AITC-induced intracellular Ca2+ flux in presence of 10 uM AITC by Fluo4-AM dye based fluorescence analysis. The experiment is classed as cell-based.
A further experiment has as its system Homo sapiens. In words: Inhibition of methylparaben/phenoxyethanol-induced sensory irritation in human at 0.2% applied topically and measured for 8 mins. The experiment is classed as functional, organism-based. The conditions noted are these: route top.

SMILES strings stand for the structures. Active and inactive are the calls of the source. The calls are words filed in the database; no cut-off is given here.

T1 sequence (O75762 whole entry): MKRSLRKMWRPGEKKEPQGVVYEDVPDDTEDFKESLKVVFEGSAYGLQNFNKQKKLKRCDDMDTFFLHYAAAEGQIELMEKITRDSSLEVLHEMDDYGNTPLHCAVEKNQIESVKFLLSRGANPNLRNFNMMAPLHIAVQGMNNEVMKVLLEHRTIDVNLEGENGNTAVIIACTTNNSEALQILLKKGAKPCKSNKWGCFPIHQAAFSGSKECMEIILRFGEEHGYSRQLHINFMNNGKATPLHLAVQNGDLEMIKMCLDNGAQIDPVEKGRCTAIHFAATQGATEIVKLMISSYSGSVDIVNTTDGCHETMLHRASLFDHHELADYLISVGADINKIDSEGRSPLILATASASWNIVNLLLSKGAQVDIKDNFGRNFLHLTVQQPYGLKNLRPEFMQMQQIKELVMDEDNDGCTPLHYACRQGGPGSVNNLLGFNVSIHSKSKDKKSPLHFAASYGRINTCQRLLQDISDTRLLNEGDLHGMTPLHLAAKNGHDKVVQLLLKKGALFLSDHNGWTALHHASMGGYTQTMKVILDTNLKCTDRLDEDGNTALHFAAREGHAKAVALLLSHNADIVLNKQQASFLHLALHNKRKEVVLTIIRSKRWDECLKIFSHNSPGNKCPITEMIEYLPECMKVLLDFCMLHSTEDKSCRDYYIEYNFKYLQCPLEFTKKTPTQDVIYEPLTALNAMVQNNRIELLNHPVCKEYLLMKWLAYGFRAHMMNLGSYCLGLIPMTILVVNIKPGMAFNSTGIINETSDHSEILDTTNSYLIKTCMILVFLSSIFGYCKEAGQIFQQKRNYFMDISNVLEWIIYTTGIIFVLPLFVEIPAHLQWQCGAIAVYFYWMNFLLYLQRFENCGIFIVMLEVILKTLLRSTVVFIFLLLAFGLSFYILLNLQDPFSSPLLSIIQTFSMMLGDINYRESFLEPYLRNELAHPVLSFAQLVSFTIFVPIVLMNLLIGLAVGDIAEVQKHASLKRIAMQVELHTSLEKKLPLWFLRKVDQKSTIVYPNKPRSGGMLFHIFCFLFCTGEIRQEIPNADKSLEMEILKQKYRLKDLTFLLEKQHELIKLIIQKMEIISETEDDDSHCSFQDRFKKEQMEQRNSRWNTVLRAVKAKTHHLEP

As to `CC(CO)C(C)Cc1ccccc1` (mixture of isomers), the IC50 in experiment [1] worked out at 17 µM. As to `CC1(C)[C@@H]2CC[C@@]1(C)[C@](C)(O)C2`, the IC50 in experiment [2] was 120 µM.

`CC(=C\c1ccc(Cl)cc1)/C(C)=N/O` [AP18 5]: in experiment [3], the result was Active. For the same molecule, the IC50 in experiment [4] was found to be 1.72 µM. With `CC(CCO)CC(C)c1ccccc1` (mixture of isomers), the IC50 in experiment [1] came out at 19.8 µM. With `C/C(=C\C(C)c1ccccc1)CO` (racemic), in experiment [1], the IC50 was 32.1 µM. In the case of `CC(C)c1ccc(NC(=O)Cn2cnc3c2c(=O)n(C)c(=O)n3C)cc1`, in experiment [3], the outcome was Active.

As to `CCC(O)C(C)Cc1ccccc1` (mixture of isomers), the IC50 in experiment [1] turned out to be 21.8 µM.

As to `CC1(C)C2CCC1(C)C(O)C2` (racemic) [BORNEOL], in the experiment on Homo sapiens, the inhibition entry is “inactive”. Further, the IC50 in experiment [4] stood at 529 µM.

Broadly, the IC50 is the concentration that gives 50% inhibition.

For the origin of these results see ChEMBL document CHEMBL5576088, “Skin- and airway-deliverable TRPA1 inhibitor” (Bioorg Med Chem, 2024).
